# Calls of active or inactive are those of the source. No cut-off for these calls is given here.
# What was measured:
# [1] = system: Trachea; assay: Inhibition of KCl-induced contraction in Sprague-Dawley rat trachea assessed as tracheal tension at 10^-4 mol/L (reference value: 2.16 to 2.59 g); type: functional
# [2] = system: Trachea; assay: Inhibition of Ach-induced contraction in Sprague-Dawley rat trachea assessed as tracheal tension at 10^-5 mol/L (reference value: 0.63 to 0.98 g); type: functional
# [3] = system: Trachea; assay: Inhibition of Ach-induced contraction in Sprague-Dawley rat trachea assessed as maximal diastolic rate at 10^-6 mol/L (reference value: 15.9 +/- 3%); type: functional; set-up: scale not given: the % may be the effect or the level left
# [4] = system: Trachea; assay: Inhibition of KCl-induced contraction in Sprague-Dawley rat trachea assessed as tracheal tension at 10^-8 mol/L (reference value: 2.16 to 2.59 g); type: functional
# [5] = system: Trachea; assay: Inhibition of Ach-induced contraction in Sprague-Dawley rat trachea assessed as maximal diastolic rate at 10^-4 mol/L (reference value: 15 +/- 4.2%); type: functional; set-up: scale not given: the % may be the effect or the level left
# [6] = system: Trachea; assay: Inhibition of KCl-induced contraction in Sprague-Dawley rat trachea assessed as maximal diastolic rate at 10^-7 mol/L (reference value: 7 +/- 0.8%); type: functional; set-up: scale not given: the % may be the effect or the level left
# [7] = system: Trachea; assay: Inhibition of Ach-induced contraction in Sprague-Dawley rat trachea at 100 umol/L; type: functional, tissue-based
# [8] = system: Trachea; assay: Inhibition of Ach-induced contraction in Sprague-Dawley rat trachea assessed as maximal diastolic rate at 10^-8 mol/L (reference value: 14 +/- 1.8%); type: functional; set-up: scale not given: the % may be the effect or the level left
# [9] = system: Trachea; assay: Inhibition of KCl-induced contraction in Sprague-Dawley rat trachea assessed as maximal diastolic rate at 10^-6 mol/L (reference value: 6 +/- 1.2%); type: functional; set-up: scale not given: the % may be the effect or the level left
# [10] = system: Trachea; assay: Inhibition of Ach-induced contraction in Sprague-Dawley rat trachea assessed as tracheal tension at 10^-6 mol/L (reference value: 0.63 to 0.98 g); type: functional
# [11] = system: Trachea; assay: Inhibition of KCl-induced contraction in Sprague-Dawley rat trachea assessed as maximal diastolic rate at 10^-8 mol/L (reference value: 7 +/- 0.3%); type: functional; set-up: scale not given: the % may be the effect or the level left
# [12] = system: Trachea; assay: Inhibition of KCl-induced contraction in Sprague-Dawley rat trachea assessed as maximal diastolic rate at 10^-5 mol/L (reference value: 6 +/- 0.6%); type: functional; set-up: scale not given: the % may be the effect or the level left
# [13] = system: Trachea; assay: Inhibition of KCl-induced contraction in Sprague-Dawley rat trachea assessed as tracheal tension at 10^-6 mol/L (reference value: 2.16 to 2.59 g); type: functional
# [14] = system: Trachea; assay: Inhibition of Ach-induced contraction in Sprague-Dawley rat trachea; type: functional, tissue-based
# [15] = system: Trachea; assay: Inhibition of KCl-induced contraction in Sprague-Dawley rat trachea assessed as maximal diastolic rate at 10^-9 mol/L (reference value: 5.9 +/- 1.8%); type: functional; set-up: scale not given: the % may be the effect or the level left
# [16] = system: Trachea; assay: Inhibition of Ach-induced contraction in Sprague-Dawley rat trachea assessed as tracheal tension at 10^-7 mol/L (reference value: 0.63 to 0.98 g); type: functional
# [17] = system: Trachea; assay: Inhibition of KCl-induced contraction in Sprague-Dawley rat trachea assessed as tracheal tension at 10^-5 mol/L (reference value: 2.16 to 2.59 g); type: functional
# [18] = system: Trachea; assay: Inhibition of Ach-induced contraction in Sprague-Dawley rat trachea assessed as tracheal tension at 10^-4 mol/L (reference value: 0.63 to 0.98 g); type: functional
# [19] = system: Trachea; assay: Inhibition of KCl-induced contraction in Sprague-Dawley rat trachea assessed as tracheal tension at 10^-9 mol/L (reference value: 2.16 to 2.59 g); type: functional
# [20] = system: Trachea; assay: Inhibition of KCl-induced contraction in Sprague-Dawley rat trachea assessed as maximal diastolic rate at 10^-4 mol/L (reference value: 6.6 +/- 0.3%); type: functional; set-up: scale not given: the % may be the effect or the level left
# [21] = system: Trachea; assay: Inhibition of KCl-induced contraction in Sprague-Dawley rat trachea assessed as tracheal tension at 10^-7 mol/L (reference value: 2.16 to 2.59 g); type: functional
# [22] = system: Trachea; assay: Inhibition of Ach-induced contraction in Sprague-Dawley rat trachea assessed as tracheal tension at 10^-9 mol/L (reference value: 0.63 to 0.98g); type: functional
# [23] = system: Trachea; assay: Inhibition of Ach-induced contraction in Sprague-Dawley rat trachea assessed as maximal diastolic rate at 10^-7 mol/L (reference value: 14.2 +/- 2.3%); type: functional; set-up: scale not given: the % may be the effect or the level left
# [24] = system: Trachea; assay: Inhibition of Ach-induced contraction in Sprague-Dawley rat trachea assessed as maximal diastolic rate at 10^-5 mol/L (reference value: 15.9 +/- 2.6%); type: functional; set-up: scale not given: the % may be the effect or the level left
# [25] = system: Trachea; assay: Inhibition of Ach-induced contraction in Sprague-Dawley rat trachea at 1 to 100 umol/L; type: functional, tissue-based; details: read-out: pA2 (converted)
# [26] = system: Trachea; assay: Inhibition of Ach-induced contraction in Sprague-Dawley rat trachea assessed as maximal diastolic rate at 10^-9 mol/L (reference value: 12.7 +/- 2.8%); type: functional; set-up: scale not given: the % may be the effect or the level left
# [27] = system: Trachea; assay: Inhibition of Ach-induced contraction in Sprague-Dawley rat trachea assessed as tracheal tension at 10^-8 mol/L (reference value: 0.63 to 0.98 g); type: functional
compound,measurement,setting,value
C[C@@H]1CC[C@H]2N(C1)C[C@H]1[C@@H]3C[C@H]4[C@@H](CC(=O)[C@H]5C[C@@H](O)CC[C@@]54C)[C@@H]3CC[C@@H]1[C@]2(C)O,Activity,[1],2.48 g
same,Activity,[2],0.43 g
same,Activity,[3],30.4%
same,Activity,[4],2.46 g
same,Activity,[5],39.3%
same,Activity,[6],3.2%
same,inhibition,[7],Active
same,Activity,[8],20.6%
same,Activity,[9],3.6%
same,Activity,[10],0.46 g
same,Activity,[11],5.2%
same,Activity,[12],3.3%
same,Activity,[13],2.48 g
same,EC50,[14],650 nM
same,Activity,[15],6.2%
same,Activity,[16],0.48 g
same,Activity,[17],2.49 g
same,Activity,[18],0.38 g
same,Activity,[19],2.43 g
same,Activity,[20],3.6%
same,Activity,[21],2.49 g
same,Activity,[22],0.54 g
same,Activity,[23],27.5%
same,Activity,[24],34.3%
same,Kb,[25],646 nM
same,Activity,[26],15.8%
same,Activity,[27],0.51 g
